Laboratory results: ChEMBL document CHEMBL1201862, “PubChem BioAssay data set” (2004)
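Test compounds were applied to cells in 96-well plates for 48 hours at 5 doses. GI50: concentration for 50% inhibition of growth.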 Calls of active or inactive are those of the source. Rule as the data show it: active = GI50 up to about 1.1 µM and inactive = higher.

Experiments:
Assay in all cases: NCI anticancer screen, dose series, 48 h
[1] = test system: HT-29
[2] = test system: IGROV-1
[3] = test system: HCC 2998
[4] = test system: SNB-75
[5] = test system: NCI-H460
[6] = test system: OVCAR-8
[7] = test system: HL-60
[8] = test system: SK-MEL-2
[9] = test system: Malme-3M
[10] = test system: SK-MEL-5
[11] = test system: A549
[12] = test system: RPMI-8226
[13] = test system: OVCAR-4
[14] = test system: SF-268
[15] = test system: SNB-19
[16] = test system: SK-MEL-28
[17] = test system: SF-539
[18] = test system: UACC-62
[19] = test system: CAKI-1
[20] = test system: M14

Measured: GI50

O=C1C(=O)c2cc([N+](=O)[O-])ccc2-c2ccc([N+](=O)[O-])cc21
inactive: [1] 7.46 µM | [3] 2.25 µM | [4] 2.14 µM | [8] 2.02 µM | [9] 1.97 µM | [10] 1.92 µM | [11] 2.52 µM | [15] 1.74 µM | [16] 1.99 µM
active: [2] 0.748 µM | [5] 1 µM | [6] 0.351 µM | [7] 0.246 µM | [12] 0.302 µM | [13] 0.322 µM | [14] 0.484 µM | [17] 0.741 µM | [18] 0.466 µM | [19] 0.733 µM

CC(=O)NC1CC(C(C)(C)NC(C)=O)CC=C1C (stereo not given)
inactive: [1] > 100 µM | [2] > 100 µM | [3] > 100 µM | [4] > 100 µM | [5] > 100 µM | [6] > 100 µM | [7] > 100 µM | [10] > 100 µM | [11] > 100 µM | [20] > 100 µM | [13] > 100 µM | [14] > 100 µM | [15] > 100 µM | [16] > 100 µM | [17] > 100 µM | [18] > 100 µM

COc1cc2c(c(OC)c1OC)-c1[nH]ncc1CC2
inactive: [1] > 100 µM | [2] > 100 µM | [3] > 100 µM | [4] > 100 µM | [5] > 100 µM | [6] > 100 µM | [7] > 100 µM | [8] > 100 µM | [9] > 100 µM | [10] > 100 µM | [11] > 100 µM | [20] > 100 µM | [14] > 100 µM | [15] > 100 µM | [16] > 100 µM | [17] > 100 µM | [18] > 100 µM | [19] 60.7 µM

CC1C(NNC(N)=O)Oc2cc3c(cc2C1c1ccccc1O)OCO3 (stereo not given)
inactive: [1] 34 µM | [2] 26.3 µM | [3] 84.3 µM | [4] 27.9 µM | [5] 38.8 µM | [7] 14.9 µM | [8] 35.6 µM | [9] 28.6 µM | [10] 27.4 µM | [11] 31.8 µM | [20] 39.3 µM | [12] 21.5 µM | [14] 39.6 µM | [15] 91 µM | [16] 31 µM | [17] 24.2 µM | [18] 30.4 µM | [19] 29.5 µM

Cc1ccc(S(=O)(=O)NNC2Oc3cc4c(cc3C(c3ccccc3O)C2C)OCO4)cc1 (stereo not given)
inactive: [1] 14.3 µM | [2] 12.4 µM | [3] 16.9 µM | [4] 10.9 µM | [5] 12.1 µM | [7] 18.4 µM | [8] 9.62 µM | [9] 12.2 µM | [10] 14.5 µM | [11] 8.36 µM | [20] 13.4 µM | [12] 12.2 µM | [14] 14 µM | [15] 12.7 µM | [16] 15.6 µM | [17] 16.9 µM | [18] 15.7 µM | [19] 11.5 µM

CC12Nc3ccccc3N1C(=O)c1ccccc12 (stereo not given)
inactive: [1] > 100 µM | [2] > 100 µM | [3] > 100 µM | [5] > 100 µM | [6] > 100 µM | [7] > 100 µM | [8] > 100 µM | [10] > 100 µM | [11] > 100 µM | [20] > 100 µM | [12] > 100 µM | [13] > 100 µM | [14] > 100 µM | [15] > 100 µM | [16] > 100 µM | [17] > 100 µM | [18] > 100 µM | [19] > 100 µM

COc1ccc(C(c2cc3c(cc2O)OCO3)N2CCOCC2)cc1OC (stereo not given)
inactive: [1] 12.9 µM | [2] 14.9 µM | [4] 15.3 µM | [5] 22 µM | [6] 5.02 µM | [7] 25.4 µM | [8] 16.6 µM | [9] 13.1 µM | [10] 13.5 µM | [11] 22.4 µM | [20] 12.4 µM | [12] 2.66 µM | [13] 15.6 µM | [14] 10.9 µM | [15] 16.7 µM | [16] 17.5 µM | [17] 14.6 µM | [18] 5.75 µM | [19] 12.8 µM

O=C(Nc1ccc(F)cc1)c1cc2ccc(O)cc2o/c1=N\c1ccccc1F
inactive: [1] > 100 µM | [2] 10.1 µM | [3] 33.7 µM | [5] 18.8 µM | [6] 13.7 µM | [7] 18.6 µM | [8] 29.3 µM | [9] 50 µM | [10] 10.7 µM | [12] 8.04 µM | [13] 21.3 µM | [14] 29.1 µM | [16] 32.1 µM | [17] 42.7 µM | [18] 22.6 µM | [19] 33.5 µM

CC(=O)O[C@H]1[C@@H](OC(C)=O)C(C)(C)/C=C/[C@H](C)C(=O)[C@@]2(OC(C)=O)C[C@@](C)(OC(C)=O)[C@H](OC(C)=O)[C@@H]2[C@H]2OC(=O)CC[C@@]2(OC(=O)c2ccccc2)[C@@H]1OCC(C)C
inactive: [1] 13.5 µM | [2] 68.5 µM | [3] 19.5 µM | [4] 17.8 µM | [5] 4.1 µM | [6] > 100 µM | [7] 4.11 µM | [8] > 100 µM | [9] 22.9 µM | [10] 33.5 µM | [20] 15.6 µM | [13] 62.7 µM | [14] > 100 µM | [15] > 100 µM | [17] 5.47 µM | [18] 46.5 µM | [19] 8.73 µM

O=C1C(=CNC(=S)c2ccccc2)C(=O)c2ccccc21
inactive: [1] > 100 µM | [2] 29.4 µM | [3] 37 µM | [4] 58.9 µM | [5] 70.8 µM | [6] 54.6 µM | [7] 4.28 µM | [8] 39.5 µM | [10] 58.9 µM | [11] 67.5 µM | [20] 65.6 µM | [12] 25.2 µM | [13] 38.1 µM | [14] 71.8 µM | [15] 93.8 µM | [16] > 100 µM | [17] 58.5 µM | [18] 28.8 µM | [19] 71.4 µM

NC(CCOCCP(=O)(O)CCC1C=CC=CC1)C(=O)O (stereo not given)
inactive: [1] > 100 µM | [2] > 100 µM | [3] > 100 µM | [4] 64 µM | [5] > 100 µM | [6] > 100 µM | [7] > 100 µM | [8] > 100 µM | [10] > 100 µM | [11] > 100 µM | [20] > 100 µM | [12] > 100 µM | [13] > 100 µM | [14] > 100 µM | [15] > 100 µM | [16] > 100 µM | [17] > 100 µM | [18] 43.8 µM | [19] > 100 µM

Cn1c(=O)nc2n(-c3ccc(Cl)cc3Cl)c3ccccc3nc-2c1=O
inactive: [1] 2.53 µM | [2] 12.8 µM | [3] 3.05 µM | [6] 2.74 µM | [7] 3.18 µM | [8] 2.87 µM | [9] 1.24 µM | [10] 1.41 µM | [11] 1.62 µM | [20] 1.76 µM | [12] 15.4 µM | [13] 3.51 µM | [14] 25.9 µM | [15] 13.7 µM | [16] 11.4 µM | [17] 6.58 µM | [18] 2.04 µM | [19] 3.08 µM

O=C1C=CC2(O[C@@H](Cc3ccccc3)[C@H](Cc3ccccc3)O2)C(SC(=O)c2ccccc2)C1 (stereo not given in full)
active: [6] 0.209 µM | [12] 0.292 µM | [14] 0.904 µM
inactive: [1] 1.64 µM | [2] 1.26 µM | [4] 1.91 µM | [5] 2.59 µM | [7] 1.18 µM | [8] 1.66 µM | [9] 2.07 µM | [10] 1.66 µM | [11] 4.22 µM | [20] 1.45 µM | [13] 1.47 µM | [15] 1.94 µM | [16] 1.81 µM | [17] 1.66 µM | [18] 2.24 µM | [19] 1.26 µM

Cn1c(=O)ccc2c(=O)c3ccccc3oc21
active: [4] 0.029 µM
inactive: [1] > 100 µM | [2] > 100 µM | [3] > 100 µM | [5] > 100 µM | [6] > 100 µM | [7] > 100 µM | [8] > 100 µM | [9] > 100 µM | [10] > 100 µM | [11] > 100 µM | [20] > 100 µM | [13] > 100 µM | [14] > 100 µM | [15] > 100 µM | [16] > 100 µM | [17] > 100 µM | [18] > 100 µM | [19] > 100 µM

O=C(/C=C/CC(O)(c1ccccc1)c1ccccc1)Nc1ccccc1Cl
inactive: [1] > 100 µM | [3] > 100 µM | [4] 28.1 µM | [5] > 100 µM | [6] > 100 µM | [7] > 100 µM | [8] > 100 µM | [9] 45.3 µM | [10] > 100 µM | [20] > 100 µM | [12] > 100 µM | [13] > 100 µM | [14] > 100 µM | [15] > 100 µM | [16] > 100 µM | [18] > 100 µM | [19] > 100 µM
